Target: T1, SHP2 protein (Homo sapiens, UniProt Q06124)
T1 sequence (Q06124 1-593): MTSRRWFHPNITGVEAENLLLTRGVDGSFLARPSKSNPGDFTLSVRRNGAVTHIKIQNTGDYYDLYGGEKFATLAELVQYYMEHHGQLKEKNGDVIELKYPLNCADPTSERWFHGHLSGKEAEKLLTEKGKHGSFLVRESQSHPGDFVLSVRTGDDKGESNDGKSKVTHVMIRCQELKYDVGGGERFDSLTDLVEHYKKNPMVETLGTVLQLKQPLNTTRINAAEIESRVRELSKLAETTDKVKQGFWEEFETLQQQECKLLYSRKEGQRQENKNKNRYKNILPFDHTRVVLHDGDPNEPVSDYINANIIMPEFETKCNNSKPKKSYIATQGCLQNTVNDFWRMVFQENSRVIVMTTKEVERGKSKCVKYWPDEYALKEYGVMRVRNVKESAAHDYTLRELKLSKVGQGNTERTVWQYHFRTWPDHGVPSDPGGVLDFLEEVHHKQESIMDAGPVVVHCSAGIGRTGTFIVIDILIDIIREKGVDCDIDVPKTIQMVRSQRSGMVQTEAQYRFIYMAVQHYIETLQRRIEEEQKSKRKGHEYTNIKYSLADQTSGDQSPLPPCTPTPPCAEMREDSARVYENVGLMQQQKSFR
Experiment: Measurement of SHP2 protein degradation in NCI-H358 cells (western blotting)
Format: cell-based
Parameters: endogenous in cells; host or cells: NCI-H358
Conditions: harvested after 24 hours
Summary of the method: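 H358 cells in RPMI1640/25 mM HEPES/10% FBS, cultured 24 h, then exposed to compound at final 0.001, 0.01 and 0.1 μM for 24 h against a DMSO control. Lysates were normalised for protein by BCA and probed by western blot for SHP2, with GAPDH as loading control.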

| Structure (SMILES) | SHP2% degradation (0.01 μM) [%] | SHP2% degradation (0.1 μM) [%] |
| --- | --- | --- |
| CC(=O)N[C@H](C(=O)N1C[C@H](O)C[C@H]1C(=O)NCc1ccc(-c2scnc2C)cc1O[C@H]1CC[C@H](C(=O)N2CC(Nc3nccc(Sc4cnc(N5CCC(C)(CN)CC5)c(CO)n4)c3Cl)C2)CC1)C(C)(C)C [Example 44, (2S,4R)-1-((S)-2-acetamido-3,3-dimethylbutanoyl)-N-(2-(((1r,4S)-4-(3-((4-((5-(4-(aminomethyl)-4-methylpiperidin-1-yl)-6-(hydroxymethyl)pyrazin-2-yl)thio)-3-chloropyridin-2-yl)amino)azetidine-1-carbonyl)cyclohexyl)oxy)-4-(4-methylthiazol-5-yl)benzyl)-4-hydroxypyrrolidine-2-carboxamide] | 88.5 | 99.1 |
| Cc1cn([C@H](C(=O)N2C[C@H](O)C[C@H]2C(=O)NCc2ccc(Cl)cc2OC2CCN(C(=O)C3CCN(c4nccc(Sc5cnc(N6CCC7(CC6)CO[C@@H](C)[C@H]7N)c(CO)n5)c4Cl)CC3)CC2)C(C)C)nn1 [Example 112, (2S,4R)—N-(2-((1-(1-(4-((5-((3S,4S)-4-amino-3-methyl-2-oxa-8-azaspiro[4.5]decan-8-yl)-6-(hydroxymethyl)pyrazin-2-yl)thio)-3-chloropyridin-2-yl)piperidine-4-carbonyl)piperidin-4-yl)oxy)-4-chlorobenzyl)-4-hydroxy-1-((S)-3-methyl-2-(4-methyl-1H-1,2,3-triazol-1-yl)butanoyl)pyrrolidine-2-carboxamide] | 93.8 | 99.7 |
| CC(=O)N[C@H](C(=O)N1C[C@H](O)C[C@H]1C(=O)NCc1ccc(-c2scnc2C)cc1OC1CCN(C(=O)C2CCN(c3cccc(Sc4cnc(N5CCC(C)(CN)CC5)cn4)c3Cl)CC2)CC1)C(C)(C)C [Example 82, (2S,4R)-1-((S)-2-acetamido-3,3-dimethylbutanoyl)-N-(2-((1-(1-(3-((5-(4-(aminomethyl)-4-methylpiperidin-1-yl)pyrazin-2-yl)thio)-2-chlorophenyl)piperidine-4-carbonyl)piperidin-4-yl)oxy)-4-(4-methylthiazol-5-yl)benzyl)-4-hydroxypyrrolidine-2-carboxamide] | 94.9 | 97.4 |
| Cc1cc(C(C(=O)N2C[C@H](O)C[C@H]2C(=O)NCc2ccc(-c3scnc3C)cc2O[C@H]2CC[C@H](C(=O)N3CC(Nc4cccc(Sc5cnc(N6CCC(C)(CN)CC6)cn5)c4Cl)C3)CC2)C(C)C)on1 (stereo partly drawn) [Example 115, (2S,4R)—N-(2-(((1R,4S)-4-(3-((3-((5-(4-(aminomethyl)-4-methylpiperidin-1-yl)pyrazin-2-yl)thio)-2-chlorophenyl)amino)azetidine-1-carbonyl)cyclohexyl)oxy)-4-(4-methylthiazol-5-yl)benzyl)-4-hydroxy-1-(3-methyl-2-(3-methylisoxazol-5-yl)butanoyl)pyrrolidine-2-carboxamide] | 98.3 | 99.2 |
| CC(=O)N[C@H](C(=O)N1C[C@H](O)C[C@H]1C(=O)NCc1ccc(-c2scnc2C)cc1O[C@H]1CC[C@H](C(=O)N2CC(Nc3cccc(Sc4cnc(N5CCC6(CC5)Cc5ncccc5[C@H]6N)cn4)c3Cl)C2)CC1)C(C)(C)C [Example 31, (2S,4R)-1-((S)-2-acetamido-3,3-dimethylbutanoyl)-N-(2-(((1R,4S)-4-(3-((3-((5-((S)-5-amino-5,7-dihydrospiro[cyclopenta[b]pyridine-6,4′-piperidin]-1′-yl)pyrazin-2-yl)thio)-2-chlorophenyl)amino)azetidine-1-carbonyl)cyclohexyl)oxy)-4-(4-methylthiazol-5-yl)benzyl)-4-hydroxypyrrolidine-2-carboxamide] | 76.3 | 99.4 |
| CC(=O)N[C@H](C(=O)N1C[C@H](O)C[C@H]1C(=O)NCc1ccc(-c2scnc2C)cc1O[C@H]1CC[C@H](C(=O)N2CCC(Nc3nccc(Sc4cnc(N5CCC(C)(N)CC5)cn4)c3Cl)CC2)CC1)C(C)(C)C [Example 42, (2S,4R)-1-((S)-2-acetamido-3,3-dimethylbutanoyl)-N-(2-(((1R,4S)-4-(4-((4-((5-(4-amino-4-methylpiperidin-1-yl)pyrazin-2-yl)thio)-3-chloropyridin-2-yl)amino)piperidine-1-carbonyl)cyclohexyl)oxy)-4-(4-methylthiazol-5-yl)benzyl)-4-hydroxypyrrolidine-2-carboxamide] | 95.2 | 98.7 |
| Cc1ncsc1-c1ccc(CNC(=O)[C@@H]2C[C@@H](O)CN2C(=O)[C@H](C(C)C)n2cc(C3CC3)nn2)c(OC2CCN(C(=O)C3CCN(c4nccc(Sc5cnc(N6CCC(C)(N)CC6)c(CO)n5)c4Cl)CC3)CC2)c1 [Example 105, (2S,4R)—N-(2-((1-(1-(4-((5-(4-amino-4-methylpiperidin-1-yl)-6-(hydroxymethyl)pyrazin-2-yl)thio)-3-chloropyridin-2-yl)piperidine-4-carbonyl)piperidin-4-yl)oxy)-4-(4-methylthiazol-5-yl)benzyl)-1-((S)-2-(4-cyclopropyl-1H-1,2,3-triazol-1-yl)-3-methylbutanoyl)-4-hydroxypyrrolidine-2-carboxamide] | 98.4 | 97.9 |

Next, values leading:

| SHP2% degradation (0.01 μM) [%] | SHP2% degradation (0.1 μM) [%] | Structure (SMILES) |
| --- | --- | --- |
| 88.8 | 98.3 | CC(=O)N[C@H](C(=O)N1C[C@H](O)C[C@H]1C(=O)N[C@@H](C)c1ccc(-c2scnc2C)cc1O[C@H]1CC[C@H](C(=O)N2CC(Nc3cccc(Sc4cnc(N5CCC(C)(CN)CC5)cn4)c3Cl)C2)CC1)C(C)(C)C [Example 48, (2S,4R)-1-((S)-2-acetamido-3,3-dimethylbutanoyl)-N—((S)-1-(2-(((1R,4S)-4-(3-((3-((5-(4-(aminomethyl)-4-methylpiperidin-1-yl)pyrazin-2-yl)thio)-2-chlorophenyl)amino)azetidine-1-carbonyl)cyclohexyl)oxy)-4-(4-methylthiazol-5-yl)phenyl)ethyl)-4-hydroxypyrrolidine-2-carboxamide] |
| −65.7 | −18.7 | Cc1cnn(C(C(=O)N2C[C@H](O)C[C@H]2C(=O)NCc2ccc(-c3scnc3C)cc2OC2CCN(C(=O)C3CCN(c4nccc(Sc5cnc(N6CCC(C)(CN)CC6)cn5)c4Cl)CC3)CC2)C(C)C)c1 (stereo partly drawn) [Example 100, (2S,4R)—N-(2-((1-(1-(4-((5-(4-(aminomethyl)-4-methylpiperidin-1-yl)pyrazin-2-yl)thio)-3-chloropyridin-2-yl)piperidine-4-carbonyl)piperidin-4-yl)oxy)-4-(4-methylthiazol-5-yl)benzyl)-4-hydroxy-1-(3-methyl-2-(4-methyl-1H-pyrazol-1-yl)butanoyl)pyrrolidine-2-carboxamide] |
| 99.4 | 99.8 | Cc1ncsc1-c1ccc(CNC(=O)[C@@H]2C[C@@H](O)CN2C(=O)[C@H](C(C)C)n2cc(C3CC3)nn2)c(OC2CCN(C(=O)C3CCN(c4nccc(Sc5cnc(N6CCC(C)(N)CC6)cn5)c4Cl)CC3)CC2)c1 [Example 102, (2S,4R)—N-(2-((1-(1-(4-((5-(4-amino-4-methylpiperidin-1-yl)pyrazin-2-yl)thio)-3-chloropyridin-2-yl)piperidine-4-carbonyl)piperidin-4-yl)oxy)-4-(4-methylthiazol-5-yl)benzyl)-1-((S)-2-(4-cyclopropyl-1H-1,2,3-triazol-1-yl)-3-methylbutanoyl)-4-hydroxypyrrolidine-2-carboxamide] |
| 96.6 | 99.1 | CC(=O)N[C@H](C(=O)N1C[C@H](O)C[C@H]1C(=O)NCc1ccc(-c2scnc2C)cc1O[C@H]1CC[C@H](C(=O)N2CCC(N3CCc4c(Sc5cnc(N6CCC7(CC6)CO[C@@H](C)[C@H]7N)cn5)cccc43)CC2)CC1)C(C)(C)C [Example 33, (2S,4R)-1-((S)-2-acetamido-3,3-dimethylbutanoyl)-N-(2-(((1R,4S)-4-(4-(4-((5-((3S,4S)-4-amino-3-methyl-2-oxa-8-azaspiro[4.5]decan-8-yl)pyrazin-2-yl)thio)indolin-1-yl)piperidine-1-carbonyl)cyclohexyl)oxy)-4-(4-methylthiazol-5-yl)benzyl)-4-hydroxypyrrolidine-2-carboxamide] |
| 98.9 | 99.9 | Cc1cc(C(C(=O)N2C[C@H](O)C[C@H]2C(=O)NCc2ccc(-c3scnc3C)cc2OC2CCN(C(=O)C3CCN(c4nccc(Sc5cnc(N6CCC(C)(CN)CC6)c(CO)n5)c4Cl)CC3)CC2)C(C)C)on1 (stereo partly drawn) [Example 96, (2S,4R)—N-(2-((1-(1-(4-((5-(4-(aminomethyl)-4-methylpiperidin-1-yl)-6-(hydroxymethyl)pyrazin-2-yl)thio)-3-chloropyridin-2-yl)piperidine-4-carbonyl)piperidin-4-yl)oxy)-4-(4-methylthiazol-5-yl)benzyl)-4-hydroxy-1-(3-methyl-2-(3-methylisoxazol-5-yl)butanoyl)pyrrolidine-2-carboxamide] |

Source: patent publication US20260144788A1, “COMPOUND FOR SHP2 PROTEIN DEGRADATION AND MEDICAL USES THEREOF” (UBIX THERAPEUTICS, INC., priority 2022, published 2026)
